Results: PMC7561186, “Rational design of balanced dual-targeting antibiotics with limited resistance” (PLoS Biology, 2020)
Where two headings read alike, the source gives them in different places.

Tested on: S. aureus clinical isolates
Assay: microbe, parasite or virus in culture
Assay type: cell-based

Measured: MIC

CC(=O)NC[C@H]1CN(c2ccc(N3CCOCC3)c(F)c2)C(=O)O1 [Linezolid]
1 µg/mL: Staphylococcus aureus, MRSA / NRS 3 / VISA, S. aureus IHMA 1308243, NRS3, MRSA / VISA, read-out: MIC | Staphylococcus aureus, MRSA / NRS 4 / VISA, S. aureus IHMA 649380, NRS4, MRSA / VISA, read-out: MIC | Staphylococcus aureus, MRSA / NRS 21 / VISA, S. aureus IHMA 649388, NRS21, MRSA / VISA, read-out: MIC | Staphylococcus aureus, MRSA / NRS 22 / USA600 / VISA, S. aureus IHMA 649389, NRS22, MRSA / VISA, USA600, read-out: MIC | Staphylococcus aureus, MRSA / NRS 24 / VISA, S. aureus IHMA 649391, NRS24, MRSA / VISA, read-out: MIC | Staphylococcus aureus, MRSA / NRS 26, S. aureus IHMA 649392, NRS26, MRSA / VSSA, read-out: MIC | Staphylococcus aureus, MRSA / NRS 29 / VISA, S. aureus IHMA 1308250, NRS29, MRSA / VISA, read-out: MIC | Staphylococcus aureus, MRSA / NRS 37 / VISA, S. aureus IHMA 1308251, NRS37, MRSA / VISA, read-out: MIC | Staphylococcus aureus, MRSA / NRS 54, S. aureus IHMA 1308253, NRS54, MRSA / VSSA* (*Expected VAN intermediate, confirmed VAN susceptible twice), test date 2018-11-07, read-out: MIC | Staphylococcus aureus, MRSA / NRS 56 / VISA, S. aureus IHMA 1308254, NRS56, MRSA / VISA, read-out: MIC | Staphylococcus aureus, MRSA / USA100 / VRSA, S. aureus IHMA 672230, VRS1, MRSA / VRSA, USA100, read-out: MIC | Staphylococcus aureus, MRSA / USA100 / VRSA, S. aureus IHMA 672231, VRS2, MRSA / VRSA, USA100, read-out: MIC | Staphylococcus aureus, MRSA / USA100 / VRSA, S. aureus IHMA 672238, VRS8, MRSA / VRSA, USA100, read-out: MIC | Staphylococcus aureus, MRSA / USA100 / VRSA, S. aureus IHMA 672239, VRS9, MRSA / VRSA, USA100, read-out: MIC | Staphylococcus aureus, MRSA / USA100 / VRSA, S. aureus IHMA 1308258, VRS11b, MRSA / VRSA, USA100, read-out: MIC | Staphylococcus aureus, MRSA / USA800 / VRSA, S. aureus IHMA 672233, VRS3b, MRSA / VRSA, USA800, read-out: MIC | Staphylococcus aureus, MRSA, S. aureus IHMA 1583795, MRSA / VSSA, read-out: MIC | Staphylococcus aureus, MRSA, S. aureus IHMA 1586780, MRSA / VSSA, read-out: MIC | Staphylococcus aureus, MRSA, S. aureus IHMA 1588127, MRSA / VSSA, read-out: MIC | Staphylococcus aureus, MRSA, S. aureus IHMA 1597106, MRSA / VSSA, read-out: MIC | Staphylococcus aureus, MRSA, S. aureus IHMA 1620441, MRSA / VSSA, read-out: MIC
0.5 µg/mL: Staphylococcus aureus, MRSA / NRS 19 / VISA, S. aureus IHMA 649387, NRS19, MRSA / VISA, read-out: MIC | Staphylococcus aureus, MRSA, S. aureus IHMA 1580300, MRSA / VSSA, read-out: MIC
2 µg/mL: Staphylococcus aureus, ATCC 29213 / MSSA, S. aureus ATCC 29213, MSSA / VSSA, test date 2018-10-25 (three repeat lines), read-out: MIC | Staphylococcus aureus, ATCC 29213 / MSSA, S. aureus ATCC 29213, MSSA / VSSA, test date 2018-11-07, read-out: MIC | Staphylococcus aureus, MRSA / NRS 18 / VISA, S. aureus IHMA 649386, NRS18, MRSA / VISA, read-out: MIC | Staphylococcus aureus, MRSA / NRS 23 / VISA, S. aureus IHMA 649390, NRS23, MRSA / VISA, read-out: MIC | Staphylococcus aureus, MRSA / NRS 27 / VISA, S. aureus IHMA 1308248, NRS27, MRSA / VISA, read-out: MIC | Staphylococcus aureus, MRSA / USA100 / VRSA, S. aureus IHMA 672234, VRS4, MRSA / VRSA, USA100, read-out: MIC | Staphylococcus aureus, MRSA / USA100 / VRSA, S. aureus IHMA 672235, VRS5, MRSA / VRSA, USA100, read-out: MIC | Staphylococcus aureus, MRSA / USA100 / VRSA, S. aureus IHMA 672237, VRS7, MRSA / VRSA, USA100, read-out: MIC | Staphylococcus aureus, MRSA, S. aureus IHMA 1575268, MRSA / VSSA, read-out: MIC | Staphylococcus aureus, MRSA, S. aureus IHMA 1577820, MRSA / VSSA, read-out: MIC | Staphylococcus aureus, MRSA, S. aureus IHMA 1580940, MRSA / VSSA, read-out: MIC | Staphylococcus aureus, MRSA, S. aureus IHMA 1582100, MRSA / VSSA, read-out: MIC | Staphylococcus aureus, MRSA, S. aureus IHMA 1585316, MRSA / VSSA, read-out: MIC | Staphylococcus aureus, MRSA, S. aureus IHMA 1587322, MRSA / VSSA, read-out: MIC | Staphylococcus aureus, MRSA, S. aureus IHMA 1592755, MRSA / VSSA, read-out: MIC | Staphylococcus aureus, MRSA, S. aureus IHMA 1592776, MRSA / VSSA, read-out: MIC | Staphylococcus aureus, MRSA, S. aureus IHMA 1611170, MRSA / VSSA, read-out: MIC | Staphylococcus aureus, MRSA, S. aureus IHMA 1612228, MRSA / VSSA, read-out: MIC
4 µg/mL: S. aureus ATCC 29213, MSSA / VSSA, test date 2018-10-25 (three repeat lines) | Staphylococcus aureus, MRSA / USA100 / VRSA, S. aureus IHMA 1308256, VRS10, MRSA / VRSA, USA100, read-out: MIC | Staphylococcus aureus, MRSA, S. aureus IHMA 1569509, MRSA / VSSA, read-out: MIC | Staphylococcus aureus, MRSA, S. aureus IHMA 1575629, MRSA / VSSA, read-out: MIC | Staphylococcus aureus, MRSA, S. aureus IHMA 1584223, MRSA / VSSA, read-out: MIC | Staphylococcus aureus, MRSA, S. aureus IHMA 1591462, MRSA / VSSA, read-out: MIC | Staphylococcus aureus, MRSA, S. aureus IHMA 1602095, MRSA / VSSA, read-out: MIC | Staphylococcus aureus, MRSA, S. aureus IHMA 1611612, MRSA / VSSA, read-out: MIC
